Read-outs that look alike come from different tables or passages of the source. One block for each compound: values may come before it.
Columns and labels:
[1] = biological target: T1, recombinant human ACC2 (rhACC2) (Homo sapiens, UniProt O00763, V2141I); experiment: Transcreener ADP detection FP assay, recombinant human ACC2 inhibition; format: biochemical; conditions: recombinant human ACC2, 50 μM ATP; read-out: Transcreener Assay hACC2 IC50
T1 construct: made in house; host or cells: CHO cells, tetracycline-induced (pcDNA5 FRT TO-TOPO)
T1 sequence (O00763 whole entry V2141I): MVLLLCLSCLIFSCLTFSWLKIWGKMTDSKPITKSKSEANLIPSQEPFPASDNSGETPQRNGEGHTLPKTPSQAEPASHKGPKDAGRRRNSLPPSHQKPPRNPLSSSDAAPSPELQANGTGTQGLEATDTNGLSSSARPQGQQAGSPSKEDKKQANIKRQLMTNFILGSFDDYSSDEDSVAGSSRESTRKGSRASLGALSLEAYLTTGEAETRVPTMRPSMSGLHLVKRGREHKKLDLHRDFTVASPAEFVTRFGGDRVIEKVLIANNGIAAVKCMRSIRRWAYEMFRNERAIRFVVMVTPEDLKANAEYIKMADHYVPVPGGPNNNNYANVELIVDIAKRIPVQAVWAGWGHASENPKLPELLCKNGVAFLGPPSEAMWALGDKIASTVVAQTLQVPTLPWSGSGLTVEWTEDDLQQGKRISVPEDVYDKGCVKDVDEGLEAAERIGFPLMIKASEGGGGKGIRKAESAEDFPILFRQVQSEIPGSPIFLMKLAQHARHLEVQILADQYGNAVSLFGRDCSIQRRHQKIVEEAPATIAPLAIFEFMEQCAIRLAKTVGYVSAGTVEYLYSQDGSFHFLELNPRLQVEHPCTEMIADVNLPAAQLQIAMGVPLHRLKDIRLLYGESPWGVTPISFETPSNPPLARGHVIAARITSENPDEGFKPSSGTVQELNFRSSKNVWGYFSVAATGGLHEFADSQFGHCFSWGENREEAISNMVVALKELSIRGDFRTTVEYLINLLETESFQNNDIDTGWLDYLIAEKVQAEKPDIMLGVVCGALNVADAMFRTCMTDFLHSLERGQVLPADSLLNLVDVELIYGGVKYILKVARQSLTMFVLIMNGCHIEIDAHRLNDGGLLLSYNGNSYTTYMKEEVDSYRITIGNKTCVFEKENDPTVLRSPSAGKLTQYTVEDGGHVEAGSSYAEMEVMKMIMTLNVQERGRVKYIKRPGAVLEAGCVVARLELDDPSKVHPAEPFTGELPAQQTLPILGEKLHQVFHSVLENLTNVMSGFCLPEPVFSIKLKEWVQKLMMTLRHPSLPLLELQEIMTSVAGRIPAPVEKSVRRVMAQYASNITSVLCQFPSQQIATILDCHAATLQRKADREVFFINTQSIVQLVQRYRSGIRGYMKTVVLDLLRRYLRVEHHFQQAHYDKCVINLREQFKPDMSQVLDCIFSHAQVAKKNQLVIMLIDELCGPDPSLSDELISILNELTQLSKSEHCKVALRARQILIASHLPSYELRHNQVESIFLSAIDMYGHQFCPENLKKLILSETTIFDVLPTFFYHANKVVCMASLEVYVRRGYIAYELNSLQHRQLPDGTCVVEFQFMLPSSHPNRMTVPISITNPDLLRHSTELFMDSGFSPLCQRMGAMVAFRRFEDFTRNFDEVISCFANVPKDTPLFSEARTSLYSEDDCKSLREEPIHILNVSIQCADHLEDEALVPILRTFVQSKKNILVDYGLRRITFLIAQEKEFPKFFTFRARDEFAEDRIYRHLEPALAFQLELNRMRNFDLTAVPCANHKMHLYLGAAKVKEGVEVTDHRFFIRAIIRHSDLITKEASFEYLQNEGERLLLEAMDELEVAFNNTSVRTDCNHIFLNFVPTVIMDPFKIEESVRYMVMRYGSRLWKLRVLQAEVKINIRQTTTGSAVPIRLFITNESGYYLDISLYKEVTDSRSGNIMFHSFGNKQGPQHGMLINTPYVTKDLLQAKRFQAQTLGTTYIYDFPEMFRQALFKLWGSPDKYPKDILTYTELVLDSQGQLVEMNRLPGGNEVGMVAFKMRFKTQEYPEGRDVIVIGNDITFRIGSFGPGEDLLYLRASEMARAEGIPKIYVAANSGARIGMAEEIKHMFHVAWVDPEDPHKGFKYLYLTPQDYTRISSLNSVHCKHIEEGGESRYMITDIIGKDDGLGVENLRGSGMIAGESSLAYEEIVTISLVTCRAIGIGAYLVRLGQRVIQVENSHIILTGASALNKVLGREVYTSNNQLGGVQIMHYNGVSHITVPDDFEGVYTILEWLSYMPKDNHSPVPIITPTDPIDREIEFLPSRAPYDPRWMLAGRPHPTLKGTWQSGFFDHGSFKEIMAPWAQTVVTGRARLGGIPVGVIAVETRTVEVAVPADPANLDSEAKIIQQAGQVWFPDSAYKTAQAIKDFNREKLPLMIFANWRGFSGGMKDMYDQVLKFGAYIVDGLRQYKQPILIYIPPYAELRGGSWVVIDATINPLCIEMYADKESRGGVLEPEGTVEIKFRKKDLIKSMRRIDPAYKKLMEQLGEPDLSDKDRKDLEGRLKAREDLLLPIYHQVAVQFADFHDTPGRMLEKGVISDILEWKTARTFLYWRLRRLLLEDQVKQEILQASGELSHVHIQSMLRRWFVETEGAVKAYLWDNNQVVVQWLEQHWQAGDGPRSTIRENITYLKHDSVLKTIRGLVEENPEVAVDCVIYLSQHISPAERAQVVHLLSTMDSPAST

[2] = tested on: SZ95 human sebocyte cells; experiment: Inhibition of de novo lipogenesis (14C-acetate incorporation) in cultured human sebocytes; format: cell-based; conditions: SZ95 sebocytes, 14C-acetate incorporation into lipids relative to vehicle, read-out: C9302E Sebocyte IC50
Protocol: SZ95 sebocytes were grown in Human Sebocyte Growth Medium (HSGM) (Sebomed® medium (Biochrom: F8205) supplemented with 10% heat-inactivated fetal bovine serum, 1% penicillin/streptomycin, 1 mM calcium chloride and 5 ng/mL recombinant human epidermal growth factor (Life Tech: PHG0311)). At 90% confluence, cells were washed three times with PBS and then detached with 0.05% Trypsin-EDTA. Cells were centrifuged and resuspended in HSGM containing 10% charcoal-stripped serum (Life Tech: 12676-029). Cells were then plated in 24-well plates at a density of 0.25×10^6 cells/well and were incubated overnight to enable cell adherence to the culture plate.
Cells were treated with a dose response of compound, and each dose was assayed in triplicate. Briefly, compounds were dissolved in DMSO stocks and diluted 1:1000 into charcoal-stripped media. 0.1% DMSO without compound was used as the vehicle control. After a 1 hour preincubation with compound or vehicle, 0.25 μCi ^14C-acetic acid (American Radiolabeled Chemicals: ARC0158B) was added to each well. Plates were then incubated for an additional two hours. At the end of the incubation period, cells were removed from incubator, placed on ice, and then washed twice with ice-cold PBS to remove free ^14C-acetic acid. Plates were sealed and stored at −20° C. until analysis.
Plates were shaken for 1 hour at room temperature to induce lysis. Lysates were transferred to individual 1.5 mL polypropylene tubes, and wells were washed with 175 μl of PBS, which was added to lysates. 450 μl of a 1:1 (v/v) chloroform:methanol solution was then added to each tube, and then all tubes were vortexed for 10 seconds and centrifuged at 20,000×g for 5 minutes at room temperature to separate aqueous from organic phase. A 25 μl aliquot was removed from the bottom organic layer of each sample and added to 6 mL OptiPhase supermix (PerkinElmer: 1200-439) scintillation fluid. Counts of ^14C incorporated into lipids were assessed by scintillation counting. DNL (counts of ^14C incorporated into lipids) was expressed for compound treated cells relative to DNL in the vehicle control treated cells for determination of EC50 values. For a subset of the compounds tested, a second aliquot (3×35 μl) of the organic layer of each sample was removed and applied to a TLC lane (Analtech Silica Gel G Plates). Radiolabeled lipids were resolved using a 2-solvent system. Solvent 1 contained a 100:100:100:40:36 mixture of ethyl acetate:isopropyl alcohol:CHCl3:MeOH:0.25% KCl and solvent 2 a 70:27:3 hexane:diethyl ether:acetic acid mix. The TLC plate was dried under nitrogen for 30 minutes and [^14C]-calibrators added to a vacant lane. Bands were visualized and quantitated using a Molecular Dynamics' Storm 860 Phosphorimager system following 18-36 hours exposure to a Phosphorimager screen.

[3] = biological target: T2, recombinant human ACC1 (rhACC1) (Homo sapiens, UniProt Q13085, DEL44-44); experiment: Transcreener ADP detection FP assay, recombinant human ACC1 inhibition; format: biochemical; conditions: recombinant human ACC1, 50 μM ATP; read-out: Transcreener Assay hACC1 IC50
T2 construct: His6 (N); made in house; host or cells: SF9 insect cells (baculovirus)

[4] = biological target: hACC1 (Homo sapiens, UniProt Q13085); experiment: Radiometric ACC1 inhibition assay; format: biochemical
[5] = biological target: hACC2 (Homo sapiens, UniProt O00763); experiment: Radiometric ACC2 inhibition assay; format: biochemical
hACC2, sequence (O00763 whole entry): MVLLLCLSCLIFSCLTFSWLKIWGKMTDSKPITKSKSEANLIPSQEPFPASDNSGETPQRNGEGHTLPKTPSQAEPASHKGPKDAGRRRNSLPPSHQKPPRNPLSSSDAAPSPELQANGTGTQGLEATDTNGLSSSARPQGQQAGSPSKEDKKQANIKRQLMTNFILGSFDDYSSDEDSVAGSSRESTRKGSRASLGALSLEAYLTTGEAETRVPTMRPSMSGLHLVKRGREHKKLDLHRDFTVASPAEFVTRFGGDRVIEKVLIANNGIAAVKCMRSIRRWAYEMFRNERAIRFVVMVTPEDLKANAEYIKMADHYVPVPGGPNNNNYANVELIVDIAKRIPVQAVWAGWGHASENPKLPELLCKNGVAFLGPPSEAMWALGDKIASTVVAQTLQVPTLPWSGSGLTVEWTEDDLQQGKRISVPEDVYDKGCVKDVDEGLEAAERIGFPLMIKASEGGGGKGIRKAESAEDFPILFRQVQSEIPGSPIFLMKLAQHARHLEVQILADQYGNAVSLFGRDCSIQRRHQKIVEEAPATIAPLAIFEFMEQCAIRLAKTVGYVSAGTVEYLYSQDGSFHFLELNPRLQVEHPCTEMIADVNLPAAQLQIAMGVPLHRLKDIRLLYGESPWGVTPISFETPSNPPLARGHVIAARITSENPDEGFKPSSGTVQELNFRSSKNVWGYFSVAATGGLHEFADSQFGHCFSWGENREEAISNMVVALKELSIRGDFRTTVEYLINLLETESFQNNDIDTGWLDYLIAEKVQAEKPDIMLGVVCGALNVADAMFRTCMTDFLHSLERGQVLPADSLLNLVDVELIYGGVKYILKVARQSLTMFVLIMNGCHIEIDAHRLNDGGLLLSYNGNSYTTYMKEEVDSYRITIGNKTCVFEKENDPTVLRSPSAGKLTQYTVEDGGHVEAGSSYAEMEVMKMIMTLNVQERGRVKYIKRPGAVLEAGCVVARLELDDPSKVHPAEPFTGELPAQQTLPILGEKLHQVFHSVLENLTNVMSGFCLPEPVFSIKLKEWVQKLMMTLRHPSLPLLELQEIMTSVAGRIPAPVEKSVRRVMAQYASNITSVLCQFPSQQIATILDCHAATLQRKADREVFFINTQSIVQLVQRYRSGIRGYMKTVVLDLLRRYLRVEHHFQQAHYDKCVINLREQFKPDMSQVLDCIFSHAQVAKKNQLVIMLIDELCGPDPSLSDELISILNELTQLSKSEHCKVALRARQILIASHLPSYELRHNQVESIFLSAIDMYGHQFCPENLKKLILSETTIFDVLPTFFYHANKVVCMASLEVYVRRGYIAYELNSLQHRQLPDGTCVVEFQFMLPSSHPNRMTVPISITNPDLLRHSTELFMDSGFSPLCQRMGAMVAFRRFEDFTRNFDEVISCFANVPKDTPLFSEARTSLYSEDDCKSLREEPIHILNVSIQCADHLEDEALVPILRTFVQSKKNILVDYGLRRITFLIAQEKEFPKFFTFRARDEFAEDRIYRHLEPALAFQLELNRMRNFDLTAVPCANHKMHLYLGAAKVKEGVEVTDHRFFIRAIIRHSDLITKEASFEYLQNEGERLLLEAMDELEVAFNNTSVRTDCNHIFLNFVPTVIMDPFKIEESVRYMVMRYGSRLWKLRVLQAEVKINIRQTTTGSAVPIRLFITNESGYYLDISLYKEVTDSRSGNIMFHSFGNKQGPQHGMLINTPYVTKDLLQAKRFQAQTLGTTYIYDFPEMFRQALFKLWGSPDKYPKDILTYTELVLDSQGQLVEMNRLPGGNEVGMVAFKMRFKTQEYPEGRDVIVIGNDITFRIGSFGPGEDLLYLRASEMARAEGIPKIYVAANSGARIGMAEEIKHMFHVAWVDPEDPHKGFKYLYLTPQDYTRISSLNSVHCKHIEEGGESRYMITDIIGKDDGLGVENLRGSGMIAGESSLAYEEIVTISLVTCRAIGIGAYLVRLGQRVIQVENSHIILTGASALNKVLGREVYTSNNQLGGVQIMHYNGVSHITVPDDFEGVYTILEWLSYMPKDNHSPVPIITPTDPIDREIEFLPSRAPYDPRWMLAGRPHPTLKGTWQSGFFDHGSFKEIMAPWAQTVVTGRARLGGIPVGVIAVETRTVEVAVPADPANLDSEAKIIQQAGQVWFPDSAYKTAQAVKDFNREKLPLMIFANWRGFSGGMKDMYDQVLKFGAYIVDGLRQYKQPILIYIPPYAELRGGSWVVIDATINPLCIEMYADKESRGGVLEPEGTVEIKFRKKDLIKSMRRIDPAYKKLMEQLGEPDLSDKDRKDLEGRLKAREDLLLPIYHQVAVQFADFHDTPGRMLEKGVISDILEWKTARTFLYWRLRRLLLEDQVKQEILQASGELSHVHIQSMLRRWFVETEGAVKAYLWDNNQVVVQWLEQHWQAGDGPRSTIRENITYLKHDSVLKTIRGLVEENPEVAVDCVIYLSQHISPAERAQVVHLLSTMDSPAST

IC50 [4]: > 10000 nM
SMILES: CCCCCCCCCCCCCCOc1ccc(C(=O)OCc2oc(=O)oc2C)o1 [Example 19, (5-methyl-2-oxo-1,3-dioxol-4-yl)methyl 5-(tetradecyloxy)furan-2-carboxylate]

IC50 [1]: 957 nM
IC50 [3]: 4050 nM
SMILES: CC(=O)NC(C)c1ccc(-c2cnc(Oc3ccc(OCC4CC4)cc3)s2)cc1 (stereo not drawn) [Example 22, N-(1-(4-(2-(4-(cyclopropylmethoxy)phenoxy)thiazol-5-yl)phenyl)ethyl)acetamide]

IC50 [1]: 2200 nM
IC50 [3]: 11000 nM
SMILES: CCCCC1=NC2(CCN(C(=O)c3c(NC(=O)NCC)sc4ccccc34)CC2)C(=O)N1 [Example 20, 1-(3-(2-butyl-4-oxo-1,3,8-triazaspiro[4.5]dec-1-ene-8-carbonyl)benzo[b]thiophen-2-yl)-3-ethyl urea]

IC50 [1]: 7 nM
IC50 [5]: 2 nM
IC50 [3]: 44 nM
IC50 [4]: 98 nM
SMILES: CC(=O)N[C@@H](C)c1cc(-c2cnc(Oc3ccc(OCC4CC4)cc3)s2)no1 [Example 21, (S)—N-(1-(3-(2-(4-(cyclopropylmethoxy)phenoxy)thiazol-5-yl)isoxazol-5-yl)ethyl)acetamide]

IC50 [1]: 109 nM
IC50 [5]: 16 nM
IC50 [3]: 680 nM
IC50 [4]: 687 nM
SMILES: CC(=O)N[C@@H](C)CCc1ccc(Oc2ccc(OC(C)C)cc2)cc1 [Example 23, (S)—N-(4-(4-(4-isopropoxyphenoxy)phenyl)butan-2-yl)acetamide]

IC50 [1]: 28 nM
IC50 [3]: 41 nM
SMILES: O=C(O)CCc1ccc(-c2ccc(S(=O)(=O)N[C@H]3CC[C@H](C(=O)N4CCOC[C@@H]4c4ccccc4)CC3)cc2)cc1 [Example 24, 3-(4′-(N-((1S,4r)-4-((S)-3-phenylmorpholine-4-carbonyl)cyclohexyl)sulfamoyl)-[1,1′-biphenyl]-4-yl)propanoic acid]

IC50 [4]: > 10000 nM
SMILES: CCCCCCCCCCCCCCOc1ccc(C(=O)OC(C)C)o1 [Example 18, isopropyl 5-(tetradecyloxy)furan-2-carboxylate]

Second part, the compound before the results:

SMILES: CC(C)(O)[C@@H](NC(=O)[C@H]1CC[C@H](NS(=O)(=O)c2ccc(C(F)(F)F)cc2)CC1)c1ccccc1 [Example 16, (1R,4S)—N—((S)-2-hydroxy-2-methyl-1-phenylpropyl)-4-((4-(trifluoromethyl)phenyl)sulfonamido)cyclohexane-1-carboxamide]
IC50 [1]: 69 nM
IC50 ([2]; Homo sapiens): 2770 nM
IC50 [3]: 74 nM

SMILES: COc1cc(C(=O)N2CCC3(CC2)CC(=O)c2cc(-c4nnn[nH]4)ccc2O3)cc2c1ccn2C1CC1 [Example 10, 1′-(1-cyclopropyl-4-methoxy-1H-indole-6-carbonyl)-6-(1H-tetrazol-5-yl)spiro[chromane-2,4′-piperidin]-4-one]
IC50 [1]: 4 nM
IC50 ([2]; Homo sapiens): 1690 nM
IC50 [3]: 16 nM

SMILES: CCCCCCCCCCCCCCOc1ccc(C(=O)OCC(F)(F)F)o1 [Example 17, 2,2,2-trifluoroethyl 5-(tetradecyloxy)furan-2-carboxylate]
IC50 [4]: > 10000 nM

SMILES: CC(=O)NCC(C)c1ccc2nc(Oc3ccc(OCC4CC4)nc3)sc2c1 (stereo not drawn) [Example 15, N-(2-(2-((6-(cyclopropylmethoxy)pyridin-3-yl)oxy)benzo[d]thiazol-6-yl)propyl)acetamide]
IC50 [1]: 1100 nM
IC50 ([2]; Homo sapiens): 4310 nM
IC50 [3]: 2200 nM

SMILES: CC(C)n1ncc2c1C(=O)CC1(CCN(C(=O)c3ccc4[nH]nc(C#N)c4c3)CC1)C2 [Example 11, 5-(1-isopropyl-7-oxo-1,4,6,7-tetrahydrospiro[indazole-5,4′-piperidine]-1′-carbonyl)-1H-indazole-3-carbonitrile]
IC50 [5]: 7 nM
IC50 [2]: 217 nM
IC50 [4]: 4 nM

SMILES: COc1ccc2ccc(C(=O)N3CCC4(CC3)CC(=O)c3c(cnn3C(C)C)C4)cc2c1 [Example 2, 1-isopropyl-1′-(7-methoxy-2-naphthoyl)-4,6-dihydrospiro[indazole-5,4′-piperidin]-7(1H)-one]
IC50 [1]: 2 nM
IC50 [5]: 4 nM
IC50 ([2]; Homo sapiens): 28.2 nM
IC50 [3]: 4 nM
IC50 [4]: 3 nM

SMILES: CO[C@H]1CCCC[C@@H](c2ccccc2)OC(=O)[C@@H](C)[C@@]2(O)O[C@H]([C@@H](C)[C@H](O)[C@H]2OC)[C@@H](C)/C=C/[C@H]1OC [Example 9, reference compound]
IC50 [1]: 1200 nM
IC50 [5]: 16 nM
IC50 ([2]; Homo sapiens): 4 nM
IC50 [3]: 20 nM
IC50 [4]: 140 nM

SMILES: CC(C)n1ncc2c1C(=O)CC1(CCN(C(=O)c3ccc4[nH]ncc4c3)CC1)C2 [Example 5, 1′-(1H-indazole-5-carbonyl)-1-isopropyl-4,6-dihydrospiro[indazole-5,4′-piperidin]-7(1H)-one]
IC50 [1]: 30 nM
IC50 [5]: 8 nM
IC50 ([2]; Homo sapiens): 201 nM
IC50 [3]: 62 nM
IC50 [4]: 5 nM

SMILES: CC(=O)N[C@@H](C)C#Cc1ccc(Oc2ccc(OC(C)C)cc2)cc1 [Example 12, (S)—N-(4-(4-(4-isopropoxyphenoxy)phenyl)but-3-yn-2-yl)acetamide]
IC50 [1]: 29 nM
IC50 [5]: 2 nM
IC50 ([2]; Homo sapiens): 121 nM
IC50 [3]: 141 nM
IC50 [4]: 26 nM

SMILES: CCOc1cc(C(=O)N2CCC3(CC2)CC(=O)c2cc(-c4cncc(C(N)=O)c4)ccc2O3)cc(OCC)c1-c1cccc(C(=O)O)c1 [Example 14, 4′-(6-(5-carbamoylpyridin-3-yl)-4-oxospiro[chromane-2,4′-piperidine]-1′-carbonyl)-2′,6′-diethoxy-[1,1′-biphenyl]-3-carboxylic acid]
IC50 [1]: 8 nM
IC50 [5]: 5 nM
IC50 ([2]; Homo sapiens): 8930 nM
IC50 [3]: 12 nM
IC50 [4]: 23 nM

SMILES: CC(C)n1ncc2c1C(=O)CC1(CCN(C(=O)c3ccc4ccc(NC(C)(C)C)nc4c3)CC1)C2 [Example 4, 1′-(2-(tert-butylamino)quinoline-7-carbonyl)-1-isopropyl-4,6-dihydrospiro[indazole-5,4′-piperidin]-7(1H)-one]
IC50 [1]: 12 nM
IC50 [5]: 5 nM
IC50 ([2]; Homo sapiens): 15 nM
IC50 [3]: 17 nM
IC50 [4]: 6 nM

SMILES: CC(C)n1ncc2c1C(=O)CC1(CCN(C(=O)c3ccc4[nH]nc(C#N)c4c3)CC1)C2 [Example 6, 5-(1-isopropyl-7-oxo-1,4,6,7-tetrahydrospiro[indazole-5,4′-piperidin]-1′-ylcarbonyl)-1H-indazole-3-carbonitrile]
IC50 [5]: 4 nM
IC50 [2]: 103 nM
IC50 [4]: 5 nM

SMILES: COc1nccc2ccc(C(=O)N3CCC4(CC3)Cc3cn(C(C)(C)C)nc3C(=O)N4)cc12 [Example 7, 2′-(tert-butyl)-1-(1-methoxyisoquinoline-7-carbonyl)-4′,6′-dihydrospiro[piperidine-4,5′-pyrazolo[3,4-c]pyridin]-7′(2′H)-one]
IC50 ([2]; Homo sapiens): 94 nM

SMILES: CCCOc1ccc(Oc2ccc(-c3ccc(C(C)NC(C)=O)cc3)cn2)cc1 (stereo not drawn) [Example 13, N-(1-(4-(6-(4-propoxyphenoxy)pyridin-3-yl)phenyl)ethyl)acetamide, reference compound]
IC50 [1]: 180 nM
IC50 ([2]; Homo sapiens): 3280 nM
IC50 [3]: > 2980 nM
